Literature values in US20120189694A1, “CO-PRECIPITATE COMPRISING A PHOSPHODIESTERASE-5 INHIBITOR (PDE-5-INHIBITOR) AND A […] COMPATIBLE CARRIER, PRODUCTION AND USE THEREOF” (ratiopharm GmbH, priority 2009, published 2012).

Key:
[1] = in vivo
[2] = according to WO 01/08687

## CN1CC(=O)N2[C@H](c3ccc4c(c3)OCO4)c3[nH]c4ccccc4c3C[C@@H]2C1=O [tadalafil, (6R,12aR)-6-(1,3-benzodioxol-5-yl)-2-methyl-1,2,3,4,6,7,12,12a-octahydropyrazino[2′,1′:6,1]pyrido[3,4-b]indole-1,4-dione]
[1]
  time the action lasts: up to 36 hours
[2]
  solubility in water: about 2 μg/ml
